From publication PMC3155282 (ACS Medicinal Chemistry Letters, 2011)

Legend:
[1] = molecular target: T1, CYP3A4 (Homo sapiens, UniProt P08684); conditions: recombinant enzyme
[2] = molecular target: CYP2D6 (Homo sapiens, UniProt P10635); conditions: recombinant enzyme
[3] = tested on: others of recombinant CYP1A2, 2B6, 2C8, 2C9, 2C19, 2D6 and 3A4; conditions: recombinant enzyme
[4] = tested on: CYP2D6 and 2J2; conditions: catalyzed by CYP2D6 and 2J2; cited from earlier work
[5] = tested on: cytochrome P450s; conditions: cited from earlier work
[6] = molecular target: T1, CYP3A4; conditions: cited from earlier work
[7] = molecular target: T2, CYP2C8 (Homo sapiens, UniProt P10632); assay: P450 isoform phenotyping assay, parent compound depletion, recombinant CYP2C8; type: in vitro ADME; conditions: recombinant CYP2C8, 1 µM compound
T2 sequence (P10632 1-490): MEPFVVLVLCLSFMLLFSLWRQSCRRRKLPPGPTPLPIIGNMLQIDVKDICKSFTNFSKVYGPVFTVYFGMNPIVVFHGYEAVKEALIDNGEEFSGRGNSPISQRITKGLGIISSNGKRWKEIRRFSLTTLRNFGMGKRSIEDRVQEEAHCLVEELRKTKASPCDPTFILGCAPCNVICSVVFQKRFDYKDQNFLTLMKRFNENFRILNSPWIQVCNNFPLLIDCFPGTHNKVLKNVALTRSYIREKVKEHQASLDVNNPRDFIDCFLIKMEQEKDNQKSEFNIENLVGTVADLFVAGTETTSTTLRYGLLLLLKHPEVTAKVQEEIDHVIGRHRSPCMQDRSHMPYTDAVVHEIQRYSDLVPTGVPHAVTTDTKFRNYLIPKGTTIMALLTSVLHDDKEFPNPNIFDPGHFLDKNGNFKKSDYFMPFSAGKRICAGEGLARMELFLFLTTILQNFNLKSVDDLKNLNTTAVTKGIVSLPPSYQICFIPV

Sequence of CYP2D6 (P10635 whole entry): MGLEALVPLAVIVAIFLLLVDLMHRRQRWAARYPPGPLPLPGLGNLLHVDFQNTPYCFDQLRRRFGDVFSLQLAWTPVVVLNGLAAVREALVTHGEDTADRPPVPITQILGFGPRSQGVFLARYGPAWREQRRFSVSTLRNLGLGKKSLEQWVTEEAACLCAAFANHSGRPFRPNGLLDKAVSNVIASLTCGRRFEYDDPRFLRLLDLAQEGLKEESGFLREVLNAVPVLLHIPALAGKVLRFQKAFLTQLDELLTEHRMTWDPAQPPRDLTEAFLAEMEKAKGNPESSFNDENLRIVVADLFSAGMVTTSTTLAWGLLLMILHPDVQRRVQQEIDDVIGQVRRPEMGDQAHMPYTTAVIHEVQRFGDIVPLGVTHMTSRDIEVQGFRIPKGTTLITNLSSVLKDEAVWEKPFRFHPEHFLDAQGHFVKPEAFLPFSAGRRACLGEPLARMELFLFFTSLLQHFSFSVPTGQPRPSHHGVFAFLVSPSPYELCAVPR
T1 sequence (P08684 whole entry): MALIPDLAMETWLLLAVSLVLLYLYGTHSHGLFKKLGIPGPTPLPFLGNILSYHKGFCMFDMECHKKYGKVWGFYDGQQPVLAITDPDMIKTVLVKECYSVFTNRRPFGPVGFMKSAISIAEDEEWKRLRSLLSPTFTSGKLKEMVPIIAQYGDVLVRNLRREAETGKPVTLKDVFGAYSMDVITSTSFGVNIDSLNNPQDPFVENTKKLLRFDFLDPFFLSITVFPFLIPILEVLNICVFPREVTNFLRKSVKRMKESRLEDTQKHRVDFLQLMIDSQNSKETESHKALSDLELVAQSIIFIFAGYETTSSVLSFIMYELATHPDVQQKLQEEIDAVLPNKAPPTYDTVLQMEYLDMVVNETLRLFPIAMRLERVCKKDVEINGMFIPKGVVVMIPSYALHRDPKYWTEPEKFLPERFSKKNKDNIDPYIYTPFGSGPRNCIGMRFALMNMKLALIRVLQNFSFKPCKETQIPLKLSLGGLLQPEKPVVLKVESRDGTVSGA

## COc1ccc(CCN2CCC(Nc3nc4ccccc4n3Cc3ccc(F)cc3)CC2)cc1 [astemizole]
[1]
  half-life (t1/2) of parent compound depletion from phenotyping assay, 3A4: 3A4 (1.5 m), 2D6 (4.0 m), others (>60 m)
[2]
  half-life (t1/2) of parent compound depletion from phenotyping assay, 2D6: 3A4 (1.5 m), 2D6 (4.0 m), others (>60 m)
[3]
  half-life (t1/2) of parent compound depletion from phenotyping assay, others: 3A4 (1.5 m), 2D6 (4.0 m), others (>60 m)
[4]
  conversion from astemizole to O-desmethylastemizole: 67%
[5]
  N-dealkylation (major or minor pathway): minor
[6]
  conversion from astemizole to benzimidazole hydroxylated metabolite: 25%

## CN1CCC(N(Cc2ccccc2)c2ccccc2)CC1 [bamipine]
[5]
  N-dealkylation (major or minor pathway): major

## O=C(CCCN1CCC(n2c(O)nc3ccccc32)CC1)c1ccc(F)cc1 [benperidol]
[7]
  half-life (t1/2) of parent compound depletion from phenotyping assay, 2C8: 3A4 (3.3 m), 2D6 (10.4 m), 2C8 (43.8 m), others (>60 m)
[1]
  half-life (t1/2) of parent compound depletion from phenotyping assay, 3A4: 3A4 (3.3 m), 2D6 (10.4 m), 2C8 (43.8 m), others (>60 m)
[2]
  half-life (t1/2) of parent compound depletion from phenotyping assay, 2D6: 3A4 (3.3 m), 2D6 (10.4 m), 2C8 (43.8 m), others (>60 m)
[3]
  half-life (t1/2) of parent compound depletion from phenotyping assay, others: 3A4 (3.3 m), 2D6 (10.4 m), 2C8 (43.8 m), others (>60 m)
[5]
  N-dealkylation (major or minor pathway): major

## COc1cc(N)c(Cl)cc1C(=O)NC1CCN(CCCOc2ccc(F)cc2)CC1OC (centres unmarked) [cisapride]
[3]
  half-life (t1/2) of parent compound depletion from phenotyping assay, others: 3A4 (<5 m), others (>60 m)
[5]
  N-dealkylation (major or minor pathway): major

## COc1cc(N)c(Cl)cc1C(=O)NC1CCN(Cc2ccccc2)CC1 [clebopride]
[1]
  half-life (t1/2) of parent compound depletion from phenotyping assay, 3A4: 3A4 (<5 m), others (>60 m)
[3]
  half-life (t1/2) of parent compound depletion from phenotyping assay, others: 3A4 (<5 m), others (>60 m)
[5]
  N-dealkylation (major or minor pathway): major

## O=C(NC1CCN(CCc2c[nH]c3ccccc23)CC1)c1ccccc1 [indoramin]
[1]
  half-life (t1/2) of parent compound depletion from phenotyping assay, 3A4: 2D6 (<5 m), 3A4 (16.0 m), others (>60 m)
[2]
  contribution of CYP2D6 to metabolism: contributed significantly
  half-life (t1/2) of parent compound depletion from phenotyping assay, 2D6: 2D6 (<5 m), 3A4 (16.0 m), others (>60 m)
[3]
  half-life (t1/2) of parent compound depletion from phenotyping assay, others: 2D6 (<5 m), 3A4 (16.0 m), others (>60 m)
[5]
  N-dealkylation (major or minor pathway): minor

## O=c1[nH]c2ccccc2n1C1CCN(CCCC(c2ccc(F)cc2)c2ccc(F)cc2)CC1 [pimozide]
[1]
  half-life (t1/2) of parent compound depletion from phenotyping assay, 3A4: 3A4 (2.7 m), 2D6 (3.2 m), others (>60 m)
[2]
  half-life (t1/2) of parent compound depletion from phenotyping assay, 2D6: 3A4 (2.7 m), 2D6 (3.2 m), others (>60 m)
[3]
  half-life (t1/2) of parent compound depletion from phenotyping assay, others: 3A4 (2.7 m), 2D6 (3.2 m), others (>60 m)
[5]
  N-dealkylation (major or minor pathway): major

## CN(c1nc2ccccc2s1)C1CCN(CC(O)COc2ccc(F)cc2)CC1 (centres unmarked) [sabeluzole]
[1]
  half-life (t1/2) of parent compound depletion from phenotyping assay, 3A4: 2D6 (1.5 m), 3A4 (<5.0 m), others (>60 m)
[2]
  contribution of CYP2D6 to metabolism: contributed significantly
  half-life (t1/2) of parent compound depletion from phenotyping assay, 2D6: 2D6 (1.5 m), 3A4 (<5.0 m), others (>60 m)
[3]
  half-life (t1/2) of parent compound depletion from phenotyping assay, others: 2D6 (1.5 m), 3A4 (<5.0 m), others (>60 m)
[5]
  N-dealkylation (major or minor pathway): minor

## O=C(CCCN1CCC(n2c(=S)[nH]c3ccccc32)CC1)c1ccc(F)cc1 [timiperone]
[5]
  N-dealkylation (major or minor pathway): major
